Molecular target: T1, α4β1 integrin (Homo sapiens, UniProt P05556+P13612)
T1 construct: Ramos cells fluorescently labeled with calcein; endogenous in cells; host or cells: Ramos cells
Experiment: Inhibition of adhesion of calcein-labeled Ramos cells to CS1 (fibronectin) peptide-conjugated ovalbumin
Format: cell-based
Details: Table 1; for inhibition at 100 µM: Ramos, compound at a concentration of 100 μM, read-out: % A (percent inhibition of cell adhesion); for IC50: dose required to give 50% inhibition, Ramos cell adhesion to CS1-ovalbumin, 30 minutes at 37° C
Summary of the method: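 Calcein-labelled Ramos cells (2.5×10^5/well) in TBS with 1 mM MgCl2, CaCl2 and MnCl2 adhered to CS1 peptide–ovalbumin coated at 5 μg/ml for 30 min at 37 °C, with or without compound. After washing, bound cells were lysed and read by fluorescence. IC50 is the dose giving 50% inhibition, and % inhibition was measured at 100 μM.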

T1 sequence (P13612 34-1032): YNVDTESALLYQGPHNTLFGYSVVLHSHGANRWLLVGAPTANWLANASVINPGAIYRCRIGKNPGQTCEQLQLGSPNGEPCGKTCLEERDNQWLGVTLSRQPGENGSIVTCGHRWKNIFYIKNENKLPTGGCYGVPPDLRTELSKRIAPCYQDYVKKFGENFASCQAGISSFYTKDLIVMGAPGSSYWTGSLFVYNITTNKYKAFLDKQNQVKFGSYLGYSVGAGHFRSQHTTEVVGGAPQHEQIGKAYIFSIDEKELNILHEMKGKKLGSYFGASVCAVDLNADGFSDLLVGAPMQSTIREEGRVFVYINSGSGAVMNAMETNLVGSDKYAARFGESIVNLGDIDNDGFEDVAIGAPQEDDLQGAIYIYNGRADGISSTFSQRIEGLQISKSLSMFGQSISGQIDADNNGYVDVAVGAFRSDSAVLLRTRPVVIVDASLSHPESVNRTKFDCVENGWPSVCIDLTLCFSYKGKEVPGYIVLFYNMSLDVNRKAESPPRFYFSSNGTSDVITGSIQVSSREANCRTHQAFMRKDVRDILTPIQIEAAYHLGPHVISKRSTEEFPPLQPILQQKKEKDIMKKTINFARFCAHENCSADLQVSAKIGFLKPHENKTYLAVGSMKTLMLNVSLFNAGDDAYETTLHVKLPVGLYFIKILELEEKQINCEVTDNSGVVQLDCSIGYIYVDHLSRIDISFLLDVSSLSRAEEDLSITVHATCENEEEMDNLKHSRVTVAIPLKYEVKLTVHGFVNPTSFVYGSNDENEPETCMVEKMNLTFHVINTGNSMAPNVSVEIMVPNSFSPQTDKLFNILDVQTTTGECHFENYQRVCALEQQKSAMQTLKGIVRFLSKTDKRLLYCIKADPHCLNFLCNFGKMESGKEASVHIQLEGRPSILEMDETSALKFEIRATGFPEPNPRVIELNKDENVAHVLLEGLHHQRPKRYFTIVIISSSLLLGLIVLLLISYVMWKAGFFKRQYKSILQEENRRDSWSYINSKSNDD
T1 sequence (P05556 21-798): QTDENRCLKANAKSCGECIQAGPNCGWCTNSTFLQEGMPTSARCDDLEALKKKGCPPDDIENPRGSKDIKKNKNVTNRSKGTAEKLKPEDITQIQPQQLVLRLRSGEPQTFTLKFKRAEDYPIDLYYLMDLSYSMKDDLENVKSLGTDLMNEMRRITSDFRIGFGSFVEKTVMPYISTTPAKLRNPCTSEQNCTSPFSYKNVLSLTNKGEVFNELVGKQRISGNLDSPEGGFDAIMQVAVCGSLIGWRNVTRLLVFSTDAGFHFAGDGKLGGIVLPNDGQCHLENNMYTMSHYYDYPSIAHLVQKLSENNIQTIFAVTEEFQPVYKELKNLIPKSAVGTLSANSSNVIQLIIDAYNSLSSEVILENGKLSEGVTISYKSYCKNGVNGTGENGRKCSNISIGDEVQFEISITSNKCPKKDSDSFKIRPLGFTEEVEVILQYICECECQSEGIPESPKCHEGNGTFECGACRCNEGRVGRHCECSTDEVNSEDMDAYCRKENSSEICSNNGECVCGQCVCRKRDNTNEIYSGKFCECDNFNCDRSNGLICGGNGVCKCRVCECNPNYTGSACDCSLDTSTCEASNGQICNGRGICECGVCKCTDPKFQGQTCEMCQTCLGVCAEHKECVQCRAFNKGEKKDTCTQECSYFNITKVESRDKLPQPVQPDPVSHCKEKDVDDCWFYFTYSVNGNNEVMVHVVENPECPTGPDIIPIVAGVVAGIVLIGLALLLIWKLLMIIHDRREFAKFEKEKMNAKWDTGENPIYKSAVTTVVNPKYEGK

inhibition at 100 µM [%]	IC50 [nM]	SMILES
100	2000	O=C(O)C[C@H](NC(=O)N[C@@H](CCCO)CSc1ccccc1)c1ccc2c(c1)OCO2 [(3S)-3-(1,3-benzodioxol-5-yl)-3-{[({(1S)-4-hydroxy-1-[(phenylthio)methyl]butyl}amino)carbonyl]amino}propanoic acid]
95	35000	CC(C)C(NC(=O)N[C@@H](CC(=O)O)c1ccc2c(c1)OCO2)C(Sc1ccccc1)Sc1ccccc1 (stereo partly drawn) [(3S)-3-[({[1-{[bis-(phenylsulfanyl)]methyl}-2-methylpropyl]amino}carbonyl)amino]-3-[(3,4-methylenedioxy)phenyl]propanoic acid]
100	3000	CSCC[C@@H](CSc1ccc(NC(C)=O)cc1)NC(=O)N[C@@H](CC(=O)O)c1ccc2c(c1)OCO2 [(3S)-3-[({[(1S)-1-({[4-(acetylamino)phenyl]sulfanyl}methyl)-3-(methylsulfanyl)propyl]amino}carbonyl)amino]-3-(1,3-benzodioxol-5-yl)propanoic acid]
100	300	CSCC[C@@H](CSc1ccccc1N)NC(=O)N[C@@H](CC(=O)O)c1ccc2c(c1)OCO2 [(3S)-3-[({[(1S)-1-{[(2-aminophenyl)sulfanyl]methyl}-3-(methylsulfanyl)propyl]amino}carbonyl)amino]-3-(1,3-benzodioxol-5-yl)propanoic acid]
100	300	CSCC[C@@H](CSc1cccc(N)c1)NC(=O)N[C@@H](CC(=O)O)c1ccc2c(c1)OCO2 [(3S)-3-[({[(1S)-1-{[(3-aminophenyl)thio]methyl}-3-(methylthio)propyl]amino}carbonyl)amino]-3-(1,3-benzodioxol-5-yl)propanoic acid]
100	3000	CSCC[C@@H](CSc1ccc(N)cc1)NC(=O)N[C@@H](CC(=O)O)c1ccc2c(c1)OCO2 [(3S)-3-[({[(1S)-1-{[(4-aminophenyl)sulfanyl]methyl}-3-(methylsulfanyl)propyl]amino}carbonyl)amino]-3-(1,3-benzodioxol-5-yl)propanoic acid]
100	300	C=CCOC[C@@H](CSc1ccccc1)NC(=O)N[C@@H](CC(=O)O)c1ccc2c(c1)OCO2 [(3S)-3-{[({(1S)-2-(allyloxy)-1-[(phenylthio)methyl]ethyl}amino)carbonyl]amino}-3-(1,3-benzodioxol-5-yl)propanoic acid]
99	8000	CSCC[C@@H](CSc1ccccc1)NC(=O)N[C@H](CSC)CC(=O)O [(3S)-4-(methylsulfanyl)-3-{[({(1S)-3-(methylsulfanyl)-1-[(phenylsulfanyl)methyl]propyl}amino)carbonyl]amino}butanoic acid]
100	2000	COC(=O)NCCC[C@@H](CSc1ccccc1)NC(=O)N[C@@H](CC(=O)O)c1ccc2c(c1)OCO2 [(8S,12S)-12-(1,3-benzodioxol-5-yl)-3,10-dioxo-8-((phenylsulfanyl)methyl)-2-oxa-4,9,11-triazatetradecan-14-oic acid]
100	2000	COC(=O)NCCCC[C@H](NC(=O)N[C@@H](CC(=O)O)c1ccc2c(c1)OCO2)C(=O)NCc1nc2ccccc2[nH]1 [(9S,13S)-9-{[(1H-benzimidazol-2-ylmethyl)amino]carbonyl}-13-(1,3-benzodioxol-5-yl)-3,11-dioxo-2-oxa-4,10,12-triazapentadecan-15-oic acid]
100	300	COC(=O)NCCCC[C@H](NC(=O)N[C@@H](CC(=O)O)c1ccc2c(c1)OCO2)C(=O)NCc1ccc(N)cc1 [(9S,13S)-9-{[(4-aminobenzyl)amino]carbonyl}-13-(1,3-benzodioxol-5-yl)-3,11-dioxo-2-oxa-4,10,12-triazapentadecan-15-oic acid]
100	2000	O=C(O)C[C@H](NC(=O)N[C@@H](CCCCNC(=O)OCc1ccccc1)C(=O)NCCc1ccccn1)c1ccc2c(c1)OCO2 [(9S,13S)-13-(1,3-benzodioxol-5-yl)-3,11-dioxo-1-phenyl-9-({[2-(2-pyridinyl)ethyl]amino}carbonyl)-2-oxa-4,10,12-triazapentadecan-15-oic acid]
100	0.3	Cc1ccccc1NC(=O)Nc1ccc(CNC(=O)[C@H](CCCCNC(=O)OCc2ccccc2)NC(=O)N[C@@H](CC(=O)O)c2ccc3c(c2)OCO3)cc1 [(9S,13S)-13-(1,3-benzodioxol-5-yl)-3,11-dioxo-1-phenyl-9-[({4-[(2-toluidinocarbonyl)amino]benzyl}amino)carbonyl]-2-oxa-4,10,12-triazapentadecan-15-oic acid]
100	3000	O=C(O)C[C@H](NC(=O)N[C@@H](CCCCNC(=O)OCc1ccccc1)C(=O)NCCCN1CCCC1=O)c1ccc2c(c1)OCO2 [(9S,13S)-13-(1,3-benzodioxol-5-yl)-3,11-dioxo-9-({[3-(2-oxo-1-pyrrolidinyl)propyl]amino}carbonyl)-1-phenyl-2-oxa-4,10,12-triazapentadecan-15-oic acid]
100	400	COC(=O)NCCCC[C@@H](CSc1ccccc1)NC(=O)N[C@@H](CC(=O)O)c1ccc2c(c1)OCO2 [(9S,13S)-13-(1,3-benzodioxol-5-yl)-3,11-dioxo-9-[(phenylsulfanyl)methyl]-2-oxa-4,10,12-triazapentadecan-15-oic acid]
20	> 100000	COC(=O)NCCCC[C@@H](CS(=O)(=O)c1ccccc1)NC(=O)N[C@@H](CC(=O)O)c1ccc2c(c1)OCO2 [(9S,13S)-13-(1,3-benzodioxol-5-yl)-3,11-dioxo-9-[(phenylsulfonyl)methyl]-2-oxa-4,10,12-triazapentadecan-15-oic acid]
97	5000	COC(=O)NCCCC[C@H](NC(=O)N[C@@H](CC(=O)O)c1ccc2c(c1)OCO2)C(=O)NCC1CCNCC1 [(9S,13S)-13-(1,3-benzodioxol-5-yl)-3,11-dioxo-9-{[(4-piperidinylmethyl)amino]carbonyl}-2-oxa-4,10,12-triazapentadecan-15-oic acid]
100	0.4	Cc1ccccc1CNc1ccc(CNC(=O)[C@H](CCCCNC(=O)OCc2ccccc2)NC(=O)N[C@@H](CC(=O)O)c2ccc3c(c2)OCO3)cc1 [(9S,13S)-13-(1,3-benzodioxol-5-yl)-9-[({4-[(2-methylbenzyl)amino]benzyl}amino)carbonyl]-3,11-dioxo-1-phenyl-2-oxa-4,10,12-triazapentadecan-15-oic acid]
95	1000	COC(=O)NCCCC[C@H](NC(=O)N[C@@H](CC(=O)O)c1ccc2c(c1)OCO2)C(=O)NCc1ccc(N(Cc2ccccc2C)Cc2ccccc2C)cc1 [(9S,13S)-13-(1,3-benzodioxol-5-yl)-9-[({4-bis(2-methylbenzyl)amino]benzyl}amino)carbonyl]-3,11-dioxo-2-oxa-4,10,12-triazapentadecan-15-oic acid]
100	200	COC(=O)NCCCC[C@H](NC(=O)N[C@@H](CC(=O)O)c1ccc2c(c1)OCO2)C(=O)NCc1ccc(OC)c(O)c1 [(9S,13S)-13-(1,3-benzodioxol-5-yl)-9-{[(3-hydroxy-4-methoxybenzyl)amino]carbonyl}-3,11-dioxo-2-oxa-4,10,12-triazapentadecan-15-oic acid]
100	2000	O=C(O)C[C@H](NC(=O)N[C@@H](CCCCNC(=O)OCc1ccccc1)C(=O)NCCc1ccc(O)cc1)c1ccc2c(c1)OCO2 [(9S,13S)-13-(1,3-benzodioxol-5-yl)-9-{[(4-hydroxyphenethyl)amino]carbonyl}-3,11-dioxo-1-phenyl-2-oxa-4,10,12-triazapentadecan-15-oic acid]
100	6000	COC(=O)NCCCC[C@H](NC(=O)N[C@@H](CC(=O)O)c1ccc2c(c1)OCO2)C(=O)NCCc1ccc(O)cc1 [(9S,13S)-13-(1,3-benzodioxol-5-yl)-9-{[(4-hydroxyphenethyl)amino]carbonyl}-3,11-dioxo-2-oxa-4,10,12-triazapentadecan-15-oic acid]
100	4000	CSCC[C@@H](CSc1ccccc1)NC(=O)N[C@H](CSc1ccccc1)CC(=O)O [Compound 8, (3S)-3-{[({(1S)-3-(methylsulfanyl)-1-[(phenylsulfanyl)methyl]propyl}amino)carbonyl]amino}-4-(phenylsulfanyl)butanoic acid]
100	25000	CCCC[C@@H](CSc1cccc(NCc2ccccc2C)c1)OC(=O)N[C@@H](CC(=O)O)c1ccc2c(c1)OCO2 [Compound 15, (3S)-3-(1,3-benzodioxol-5-yl)-3-{[({(1S)-1-[({3-[(2-methylbenzyl)amino]phenyl}thio)methyl]pentyl}oxy)carbonyl]amino}propanoic acid]
100	1500	CCCC[C@@H](COCc1cccs1)NC(=O)N[C@@H](CC(=O)O)c1ccc2c(c1)OCO2 [Compound 22, (3S)-3-(1,3-benzodioxol-5-yl)-3-{[({(1S)-1-[(2-thienylmethoxy)methyl]pentyl}amino)carbonyl]amino}propanoic acid]
100	200	O=C(O)C[C@H](NC(=O)N[C@@H](CCCCNC(=O)OCc1ccccc1)C(=O)NCc1cccs1)c1ccc2c(c1)OCO2 [Compound 27, (9S,13S)-13-(1,3-benzodioxol-5-yl)-3,11-dioxo-1-phenyl-9-{[(2-thienylmethyl)amino]carbonyl}-2-oxa-4,10,12-triazapentadecan-15-oic acid]

Source: patent publication US6262084A, “Compounds that inhibit the binding of integrins to their receptors” (Texas Biotechnology Corporation, priority 1999, dated 2001)
